The values below come from patent US20100120763A1, “IMIDAZO[5,1-C][1,2,4]BENZOTRIAZINE DERIVATIVES AS INHIBITORS OF PHOSPHODIESTERASES” (priority 2008, published 2010).

Data set [1] deals with T1, PDE10A (Homo sapiens, UniProt Q9Y233).
T1 construct: made in house; host or cells: SF21 insect cells (baculovirus)
The experiment in a line: Inhibition of recombinant PDE10A (baculovirus/SF21 system), [3H]-cAMP SPA. The conditions noted are these: recombinant PDE10A1, cytosolic; 0.1 μM [3H]-cAMP, 37° C., 30 minutes; read-out: PDE10A IC50. It counts as biochemical.

Data set [2] addresses T2, PDE2A (Homo sapiens, UniProt O00408).
T2 construct: made in house; host or cells: SF21 insect cells (baculovirus)
The experiment in a line: Inhibition of recombinant PDE2A (expressed in baculovirus/SF21-cells), [3H]-cAMP SPA. The format is biochemical. In outline:
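Membrane fraction of baculovirus/SF21-expressed PDE2A was incubated 30 min at 37° C in Tris-HCl/MgCl2 pH 7.4 with 0.5 μM [3H]-cAMP and 1000 nM cGMP as activator. Product was detected by SPA scintillation. IC50 used a Hill-plot 2-parameter model.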

Bounds are passed on as bounds.

T1 sequence (Q9Y233 1-779 isoform Q9Y233-1): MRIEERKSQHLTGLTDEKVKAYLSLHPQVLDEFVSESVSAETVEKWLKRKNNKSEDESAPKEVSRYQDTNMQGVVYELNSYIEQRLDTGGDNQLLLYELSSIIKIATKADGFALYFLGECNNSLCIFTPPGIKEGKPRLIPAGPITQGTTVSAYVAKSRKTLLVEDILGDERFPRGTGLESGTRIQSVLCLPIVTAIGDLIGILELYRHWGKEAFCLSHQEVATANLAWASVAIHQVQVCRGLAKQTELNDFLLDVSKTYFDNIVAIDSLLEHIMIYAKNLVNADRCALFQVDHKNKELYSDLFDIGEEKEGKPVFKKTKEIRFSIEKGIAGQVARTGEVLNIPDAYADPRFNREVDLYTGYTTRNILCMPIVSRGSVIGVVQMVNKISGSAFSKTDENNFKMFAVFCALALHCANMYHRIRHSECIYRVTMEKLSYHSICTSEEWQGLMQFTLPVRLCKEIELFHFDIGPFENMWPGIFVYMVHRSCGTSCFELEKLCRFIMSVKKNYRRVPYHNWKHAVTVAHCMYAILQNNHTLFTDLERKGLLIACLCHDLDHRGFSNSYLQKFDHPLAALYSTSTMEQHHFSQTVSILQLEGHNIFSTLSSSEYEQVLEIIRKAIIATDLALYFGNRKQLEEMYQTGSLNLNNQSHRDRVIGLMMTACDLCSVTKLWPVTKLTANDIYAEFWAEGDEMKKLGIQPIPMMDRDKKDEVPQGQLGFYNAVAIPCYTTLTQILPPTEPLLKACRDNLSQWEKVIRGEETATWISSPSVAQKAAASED
T2 sequence (O00408 whole entry): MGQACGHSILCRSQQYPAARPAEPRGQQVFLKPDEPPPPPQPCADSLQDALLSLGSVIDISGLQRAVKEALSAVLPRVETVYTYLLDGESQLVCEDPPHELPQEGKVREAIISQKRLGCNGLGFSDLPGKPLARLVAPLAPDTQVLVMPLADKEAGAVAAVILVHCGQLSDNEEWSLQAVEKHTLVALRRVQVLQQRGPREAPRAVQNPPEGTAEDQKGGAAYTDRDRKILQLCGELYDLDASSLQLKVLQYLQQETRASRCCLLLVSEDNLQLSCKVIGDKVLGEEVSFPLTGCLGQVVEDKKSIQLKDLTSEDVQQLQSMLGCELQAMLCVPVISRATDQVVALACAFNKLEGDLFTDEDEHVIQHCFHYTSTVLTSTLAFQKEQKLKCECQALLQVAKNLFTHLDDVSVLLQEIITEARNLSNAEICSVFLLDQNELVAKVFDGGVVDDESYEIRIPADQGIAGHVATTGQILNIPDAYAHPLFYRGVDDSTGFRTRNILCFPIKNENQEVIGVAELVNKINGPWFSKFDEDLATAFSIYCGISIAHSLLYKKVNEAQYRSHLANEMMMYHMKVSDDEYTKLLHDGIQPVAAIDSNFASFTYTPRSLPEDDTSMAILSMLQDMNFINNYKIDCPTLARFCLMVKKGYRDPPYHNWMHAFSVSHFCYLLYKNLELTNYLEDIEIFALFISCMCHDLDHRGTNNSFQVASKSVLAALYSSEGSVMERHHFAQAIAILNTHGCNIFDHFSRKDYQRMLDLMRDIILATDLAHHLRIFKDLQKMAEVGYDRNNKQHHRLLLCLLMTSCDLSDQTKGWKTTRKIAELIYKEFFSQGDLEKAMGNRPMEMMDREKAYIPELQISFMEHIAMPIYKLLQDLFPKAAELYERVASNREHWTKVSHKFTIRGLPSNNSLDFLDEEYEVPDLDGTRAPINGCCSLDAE

A word on the IC50: it is the point on the concentration scale where inhibition reaches its midpoint. Usually melting point stands for the temperature of the solid-liquid transition. `Cc1ncn2c1nnc1ccc(Cl)cc12` [Example 42, 8-chloro-3-methylbenzo[e]imidazo[5,1-c][1,2,4]triazine] returned a melting point of 210 °C. Besides, the IC50 in data set [1] is > 10 µM. In addition, in data set [2], the IC50 was > 10 µM.
The compound `Cc1nc(-c2cc(OC(C)C)ccc2F)n2c1nnc1ccc(Cl)cc12` [Example 43, 8-chloro-1-(2-fluoro-5-isopropoxyphenyl)-3-methylbenzo[e]imidazo[5,1-c][1,2,4]triazine] returned a melting point of 174 to 177 °C. The IC50 in data set [1] was > 0.5 µM. Further, the IC50 in data set [2] turned out to be 0.233 µM.
In turn, `COc1ccc2nnc3c(C)nc(-c4cc(OC(C)C)ccc4F)n3c2c1` [Example 44, 1-(2-fluoro-5-isopropoxyphenyl)-8-methoxy-3-methylbenzo[e]imidazo[5,1-c][1,2,4]triazine] displayed a melting point of 204 to 207 °C. Besides, the IC50 in data set [1] is 1.55 µM. Further, the IC50 in data set [2] was 0.121 µM.
In turn, `COc1cc2nnc3c(C)nc(-c4ccccn4)n3c2cc1OC` [Example 50, 7,8-dimethoxy-3-methyl-1-(pyridin-2-yl)benzo[e]imidazo[5,1-c][1,2,4]triazine] came in with a melting point of 199 to 202 °C. Further, in data set [1], the 50% inhibitory concentration (IC50) turned out to be 0.0712 µM. Also, in data set [2], the IC50 came to 2.19 µM.
For `Cc1nc(-c2ccccc2Cl)n2c1nnc1ccc(-c3ccccc3Cl)cc12` [Example 172, 1,8-Bis-(2-chloro-phenyl)-3-methyl-imidazo[5,1-c][1,2,4]benzotriazine], in that order: 172 to 175 °C, 0.00655 µM and 0.00128 µM.
`Cc1nc(-c2cccc(Cl)c2Cl)n2c1nnc1ccc(-c3cccc(Cl)c3Cl)cc12` [Example 173, 1,8-Bis-(2,3-dichloro-phenyl)-3-methyl-imidazo[5,1-c][1,2,4]benzotriazine]: the melting point was in the range of 207 to 210 °C. Moreover, the IC50 in data set [1] was 0.0576 µM. Also, in data set [2], the IC50 was 0.0615 µM.
Taken in the same sequence, the figures for `CCCOc1ccc(F)c(-c2ccc3nnc4c(C)nc(-c5cc(OCCC)ccc5F)n4c3c2)c1` [Example 174, 1,8-Bis-(2-fluoro-5-propoxy-phenyl)-3-methyl-imidazo[5,1-c][1,2,4]benzotriazine] were 134 to 136 °C, 0.0411 µM and 0.00355 µM.
With `CCCCOc1ccc(F)c(-c2ccc3nnc4c(C)nc(-c5cc(OCCCC)ccc5F)n4c3c2)c1` [Example 175, 1,8-Bis-(5-butoxy-2-fluoro-phenyl)-3-methyl-imidazo[5,1-c][1,2,4]benzotriazine], the melting point was in the range of 94 to 95 °C. Besides, the IC50 in data set [1] was 0.0216 µM. For the same compound, the IC50 in data set [2] amounted to 0.00077 µM.
In turn, `Cc1nc(-c2cc(C(F)(F)F)ccc2F)n2c1nnc1ccc(-c3cc(C(F)(F)F)ccc3F)cc12` [Example 176, 1,8-Bis-(2-fluoro-5-trifluoromethyl-phenyl)-3-methyl-imidazo[5,1-c][1,2,4]benzotriazine] had a melting point of 155 to 158 °C. In addition, the IC50 in data set [1] turned out to be 0.117 µM. Besides, in data set [2], the IC50 is 0.137 µM.
`Cc1nc(-c2ccccc2Cl)n2c1nnc1ccc(N3CCOCC3)cc12` [Example 184, 1-(2-Chloro-phenyl)-3-methyl-8-morpholin-4-yl-imidazo[5,1-c][1,2,4]benzotriazine] displayed a melting point of 242 to 245 °C. Further, the IC50 in data set [1] is 0.00977 µM. The IC50 in data set [2] turned out to be 0.00639 µM.
Take `Cc1nc(-c2ccccc2Cl)n2c1nnc1ccc(-n3ccnc3)cc12` [Example 185, 1-(2-Chloro-phenyl)-8-imidazol-1-yl-3-methyl-imidazo[5,1-c][1,2,4]benzotriazine]: the melting point is 95 to 98 °C. Further, the half-inhibitory concentration (IC50) in data set [1] worked out at 0.00897 µM. In addition, the half-inhibitory concentration (IC50) in data set [2] turned out to be 0.00714 µM.
Taken in the same sequence, the figures for `Cc1nc(-c2ccccc2Cl)n2c1nnc1ccc(N3CCN(C)CC3)cc12` [Example 186, 1-(2-Chloro-phenyl)-3-methyl-8-(4-methyl-piperazin-1-yl)-imidazo[5,1-c][1,2,4]benzotriazine] were 230 °C, 0.00902 µM and 0.00749 µM.
Consider `Cc1nc(-c2ccccc2Cl)n2c1nnc1ccc(OCc3ccc(F)cc3)cc12` [Example 187, 1-(2-Chloro-phenyl)-8-(4-fluoro-benzyloxy)-3-methyl-imidazo[5,1-c][1,2,4]benzotriazine], for which the melting point fell in the range of 174 to 177 °C. The 50% inhibitory concentration (IC50) in data set [1] came out at 0.0246 µM. In data set [2], the 50% inhibitory concentration (IC50) is 0.00972 µM.
